“Also recorded” adds a separate entry of the source.
How the values were obtained:
[1] = tested on: rat brain endothelial cells (RBECs); test: Cellular uptake of [14C]DHA by primary rat brain endothelial cells; format: cell-based
Experimental: The method of primary culture of rat brain endothelial cells (RBECs) is previously described. The meninges and white matter were carefully removed from the forebrains, and the gray matter was minced using a scalpel and enzymatic digestion by DMEM (Wako; 048–29763), including collagenase type 2 (1 mg/mL, Worthington, Lakewood, NJ, USA; CLS2) for 75 min at 37°C with agitation in the water bath. After inactivation by adding cold DMEM, the suspension was centrifuged (1,000 × g, 8 min). The pellet was separated by centrifugation in 20% BSA, (Wako, 011–27055)—DMEM (1,000 × g, 20 min). The pellet containing microvessels were further digested with DMEM including collagenase/dispase (1 mg/mL, Roche, Mannheim, Germany; 11097113001) for 20 min at 37°C with agitation in the water bath. After inactivation, microvessel clusters were separated on a 33% continuous Percoll (GE Healthcare, Buckinghamshire, UK; 17-5445-01) gradient, collected and plated on collagen type IV (0.1 mg/mL, Sigma; C5533) and fibronectin (0.075 mg/mL, Sigma; F1141-5MG) coated dishes. RBEC cultures were maintained in RBEC medium [DMEM/F12 (Wako; 042–30555) supplemented with 10% FBS (Biosera, Kansas, MO, USA; FB-1365/500), basic fibroblast growth factor (1.5 ng/mL, R&D, Minneapolis, MN, USA; 2099-FB-025), heparin (100 μg/mL, Sigma; H3149), insulin (5 μg/mL), transferrin (5 μg/mL), sodium selenite (5 ng/mL; insulin-transferrin-sodium selenite media supplement, Sigma; I1884), penicillin (100 units/mL), streptomycin (100 μg/mL; penicillin-streptomycin mixed solution, Nacalai Tesque; 09367–34) and gentamicin (50 μg/mL, Biowest, Riverside, MO, USA; L0012)] containing puromycin (4 μg/mL, Nacalai Tesque; 14861–84) at 37°C in a humidified atmosphere of 5% CO2/95% air, for three days and typically reached 70–80% confluency. […]
To measure the cellular uptake of DHA, RBECs cultured on a 24-well plate were incubated with 0.2 mL of physiological buffer containing 0.1 μCi/mL [^14C]DHA (incubation buffer) at 37°C for 30 s to 15 min. […] The total protein concentration in the cell lysates was determined using a Pierce™ BCA Protein Assay Kit. Samples were added to 10 mL of a liquid scintillation cocktail, then [^14C]DHA radioactivity in the cell lysate was measured using a liquid scintillation counter. The cellular uptake of [^14C]DHA by RBECs was expressed as cell/medium ratios calculated by dividing the radioactivity in one milligram of protein by the radioactivity in one microliter of the incubation buffer. The rate of cellular uptake was determined by the linear portion of the slope of the cell/medium ratios against the incubation time (0.5, 2, 5, and 10 min) graph.

[2] = tested on: bovine brain endothelial cells; parameters: method as in PMID: 9886086; details: 2 h incubation; ref PMID: 9886086; cited from earlier work
[3] = In situ transcardiac brain perfusion competition assay with excess unlabeled DHA: brain uptake rate (Ki) in 2-month-old mice
Experimental: (§1) Brain uptake of DHA was assessed in mice using an in situ transcardiac brain perfusion technique. […] The [1-^14C]DHA as NE-DHA (American Radiolabeled Chemicals, St. Louis, MO, USA; ARC0380), [^3H]mannitol (PerkinElmer, Waltham, MA, USA, NET101) and [^14C]sucrose (PerkinElmer, Waltham, MA, USA; NEC100X) were diluted to concentrations of 0.1 μCi/mL (DHA and sucrose) and 0.2 μCi/mL (mannitol) in a physiological buffer containing 141 mM NaCl (Sigma, St. Louis, MO, USA; 28–2270–5), 4 mM KCl (Wako, Osaka, Japan; 163–03545), 2.8 mM CaCl2 (Sigma; 05–0580), 1 mM MgSO4·7H2O (Kishida Chemical Co., Ltd., Osaka, Japan; 000–46905), 1 mM NaH2PO4·2H2O (Wako; 192–02815), 10 mM d-glucose (Wako; 041–00595), and 10 mM 4-(2-hydroxyethyl)-1-piperazineethanesulfonic acid (HEPES; Sigma; H4034); pH 7.4. In a competition assay, unlabeled NE-DHA (Sigma; D2534-100MG) was added to the perfusate (final concentration of unlabeled DHA: 100 μM) before infusion. Ethanol (Nacalai Tesque, Kyoto, Japan; 14713–95) was added to an equal volume of unlabeled DHA to the perfusate (final ethanol concentration: 0.001%) as the vehicle control.
(§2) Mice were anesthetized using an intraperitoneal injection of 25% urethane (Sigma; 94300). The heart was exposed, the left jugular vein was severed, and the descending aorta was ligated. Perfusate containing [^14C]DHA, [^3H]mannitol, or [^14C]sucrose was then infused into the left ventricle of the heart at a rate of 2 mL/min for 0.5 to 1.5 min using a 27 gauge butterfly needle. In the uptake experiment for aged mice, the perfusate was infused for 1 min. After perfusion, the brain was removed, dissected into six regions (the olfactory bulb, forebrain, cortex, hippocampus, thalamus and hypothalamus, and cerebellum), and weighed. Each brain region was mixed with 1 mL of tissue solubilizer (Solvable™; PerkinElmer; 6NE9100) and incubated at 60°C for 24 h. Samples were prepared for scintillation counting by the addition of 0.2 mL H2O2 (Sigma; 13-1910-5) and 10 mL of liquid scintillation cocktail (Pico-Fluor Plus; PerkinElmer; 6013699). The radioactivity in the samples was then measured using a liquid scintillation counter (Packard 2250CA; PerkinElmer). Brain/perfusate ratios were calculated by dividing the radioactivity in 1 g of brain tissue by the radioactivity in an mL of perfusate. Whole brain values were calculated by dividing the total radioactivity in each brain region by the total weight of each brain region. The unidirectional influx rate (Ki) was determined by the linear portion of the slope in the plot of brain/perfusate ratio against perfusion time.
Results are expressed as the mean ± standard error of the mean (SEM). Statistical analyses were performed using GraphPad Prism 8.0 (GraphPad, San Diego, CA, USA). […]

[4] = cited from earlier work
[5] = In situ transcardiac brain perfusion: brain/perfusate ratio at 1 min in 2-, 8-, 12- and 24-month-old mice; format: in vivo, C57BL/6J mice; details: for decrease of [14C]DHA brain/perfusate ratio: 1 min perfusion at 2 mL/min
Experimental: as §1, §2

[6] = parameters: method as in PMID 33054801; details: ref PMID 33054801; cited from earlier work
[7] = capillary depletion after a 40 s in situ brain perfusion, ref PMID: 19442696
[8] = co-infusion of an excess amount of DHA

CC/C=C\C/C=C\C/C=C\C/C=C\C/C=C\C/C=C\CCC(=O)O [unlabeled DHA, Docosahexaenoic acid]
effect on cellular uptake rate of [14C]DHA in rat brain endothelial cells ([1]; in the presence of unlabeled DHA, vs vehicle (Fig. F of response letter)): declined; also recorded: decreased | fate of non-esterified DHA taken up by brain endothelial cells [2]: mainly incorporated into phosphatidylcholine | inhibition at 100 µM ([3]; Mus musculus, read-out: extent of inhibition of the brain uptake rate of [14C]DHA): ~50%

CC/C=C\C/C=C\C/C=C\C/C=C\C/C=C\C/C=C\CCC(=O)O [[^14C]DHA, Docosahexaenoic acid]
rate of cellular uptake of [14C]DHA by RBECs ([1]; 4°C): 19.98 μLmg protein^-1 min^-1 | rate of cellular uptake of [14C]DHA by RBECs ([1]; 37°C): 50.13 μLmg protein^-1 min^-1 | time at which cellular uptake of [14C]DHA by RBECs peaked ([1]; intact RBECs, 37°C): 10 min | [14C]DHA detected in brain parenchymal fraction [4, 7]: more than 90% | [14C]DHA remaining in the endothelial cells of the brain vasculature [4, 7]: less than 10% | [14C]DHA remaining in endothelial cells of the brain vasculature ([4]; capillary depletion after brain perfusion, ref 12 (printed [40])): less than 10% | difference of [14C]DHA brain/perfusate ratio ([5]; forebrain, 2 vs. 12 months old): 0.04489 mL/g | difference of [14C]DHA brain/perfusate ratio ([5]; forebrain, 2 vs. 24 months old): 0.05294 mL/g | difference of [14C]DHA brain/perfusate ratio ([5]; hippocampus, 2 vs. 12 months old): 0.03402 mL/g | difference of [14C]DHA brain/perfusate ratio ([5]; hippocampus, 2 vs. 24 months old): 0.06034 mL/g | difference of [14C]DHA brain/perfusate ratio ([5]; olfactory bulb, 2 vs. 24 months old): 0.04626 mL/g | difference of [14C]DHA brain/perfusate ratio ([5]; thalamus and hypothalamus, 2 vs. 12 months old): 0.04306 mL/g | difference of [14C]DHA brain/perfusate ratio ([5]; thalamus and hypothalamus, 2 vs. 24 months old): 0.05106 mL/g | decrease of [14C]DHA brain/perfusate ratio ([5]; whole brain, 12-month-old vs 2-month-old mice): 0.03275 mL/g | decrease of [14C]DHA brain/perfusate ratio ([5]; whole brain, 24-month-old vs 2-month-old mice): 0.03827 mL/g | perfusion time at which brain uptake of [14C]DHA plateaued ([3]; 2-month-old mice, perfusion at 2 mL/min): 1.5 min

OC[C@@H](O)[C@@H](O)[C@H](O)[C@H](O)CO [mannitol]
brain concentrations and Kin compared with sucrose [6]: higher

OC[C@@H](O)[C@@H](O)[C@H](O)[C@H](O)CO [[^3H]mannitol, mannitol]
effect of age on brain uptake of [3H]mannitol ([5]; each brain region, 2-, 8-, 12-, 24-month-old mice, 1 min): no significant effects with age | change in brain uptake (brain/perfusate ratio) of [3H]mannitol with age ([5]; whole brain, 2-, 8-, 12-, 24-month-old mice, 1 min): No significant changes; also recorded: no significant differences | Kin for [3H]mannitol [3, 8]: not changed | brain/perfusate ratio of [3H]mannitol [3, 8]: increased
